From ChEMBL document CHEMBL3108753, “FGFR1 Kinase Inhibitors: Close Regioisomers Adopt Divergent Binding Modes and Display Distinct Biophysical Signatures” (ACS Med Chem Lett, 2014) come the findings set out here.

In experiment [1] the target is T1, Fibroblast growth factor receptor 1 (Homo sapiens, UniProt P11362). Description: Binding affinity to N-terminal 6xHis-tagged human recombinant FGFR1 (458 to 765) by isothermal titration calorimetric analysis. Background: In ITC the heat of successive injections is recorded.
T1 sequence (P11362 whole entry): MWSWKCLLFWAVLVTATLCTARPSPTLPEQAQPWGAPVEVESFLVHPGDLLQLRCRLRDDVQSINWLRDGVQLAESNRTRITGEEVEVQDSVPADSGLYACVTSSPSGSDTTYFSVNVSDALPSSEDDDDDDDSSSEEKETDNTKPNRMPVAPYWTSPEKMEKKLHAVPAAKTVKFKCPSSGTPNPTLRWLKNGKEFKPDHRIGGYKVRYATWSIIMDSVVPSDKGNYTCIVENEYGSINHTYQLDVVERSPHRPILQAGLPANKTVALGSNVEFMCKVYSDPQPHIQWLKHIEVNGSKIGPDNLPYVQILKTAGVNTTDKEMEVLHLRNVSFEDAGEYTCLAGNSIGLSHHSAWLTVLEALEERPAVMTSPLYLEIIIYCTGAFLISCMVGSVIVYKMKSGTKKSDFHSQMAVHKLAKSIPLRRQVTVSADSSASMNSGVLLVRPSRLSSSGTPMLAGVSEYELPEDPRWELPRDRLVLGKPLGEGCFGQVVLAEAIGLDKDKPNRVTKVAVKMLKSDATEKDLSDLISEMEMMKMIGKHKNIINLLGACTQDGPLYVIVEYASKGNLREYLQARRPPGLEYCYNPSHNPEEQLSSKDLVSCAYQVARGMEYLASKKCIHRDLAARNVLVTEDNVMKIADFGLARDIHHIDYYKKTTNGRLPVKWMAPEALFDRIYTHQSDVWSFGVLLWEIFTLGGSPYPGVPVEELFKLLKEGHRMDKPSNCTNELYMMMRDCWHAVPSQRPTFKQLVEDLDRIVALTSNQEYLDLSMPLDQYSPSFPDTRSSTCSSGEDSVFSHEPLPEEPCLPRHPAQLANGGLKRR
Experiment [2] addresses T1, Fibroblast growth factor receptor 1. Description: Inhibition of N-terminal GST-tagged human recombinant FGFR1 (456 to 765) after 40 mins by mobility shift assay.

Usually Kd stands for a measure of binding affinity in units of concentration. With `COc1ccc(CCc2cc(Nc3ccnc(NCc4cc(C)no4)n3)n[nH]2)cc1OC`, the Kd in experiment [1] stood at 0.447 µM. Further, the IC50 in experiment [2] (read-out: IC50) is 20 µM; in experiment [2] (read-out: pIC50 (converted)), 0.1 µM.

As for `COc1cc(CCc2cc(Nc3ccnc(NCc4cc(C)no4)n3)n[nH]2)cc(OC)c1`, the Kd in experiment [1] was determined as 0.0058 µM. In addition, the IC50 in experiment [2] (read-out: IC50) came out at 0.06 µM.
